These are literature values, as cited in patent US12599565B2, “Stable benzimidazole formulation” (DEXCEL PHARMA TECHNOLOGIES LTD., priority 2008, dated 2026).

Consider `COc1ccc2[nH]c([S+]([O-])Cc3ncc(C)c(OC)c3C)nc2c1` (centres unmarked) [Omeprazole, 5-methoxy-2(((4-methoxy-3,5-dimethyl-2-pyridinyl)methyl)sulfinyl)-1H-benzimidazole], for which the half life entry (pH 11) is given as “about 300 days”. Besides, the half-life of degradation result (pH values below 4.0) was “less than 10 minutes”.
